Earlier results on 17 compounds are cited in patent publication US20230355939A1, “DEVICES AND METHODS FOR CONTINUOUS EXTRUSION OF A DRUG INTO THE MOUTH” (SynAgile Corporation, priority 2020, published 2023).

SMILES strings stand for the structures.

Settings in one data set: not given
Consider `N[C@@H](Cc1ccc(O)c(O)c1)C(=O)O` [LD, levodopa], for which the solubility entry is recorded as “about 50 mg/mL”.

The conditions of the next data set: at 37° C.
In the case of `CCCCF` [1-fluorobutane], the “Approximate Pressure (vapor pressure)” value is recorded as approximately 1.3 bars. Regarding `CC(C)(C)C` [neopentane], the “Approximate Pressure (vapor pressure)” value is listed as approximately 2.4 bars. For the compound `CCCC` [butane], the “Approximate Pressure (vapor pressure)” value is reported as approximately 3.5 bars. In the case of `CC=CC` [2-butene], the “Approximate Pressure (vapor pressure)” value is approximately 3.2 bars.

For the compound `CCCF` [1-fluoropropane], the “Approximate Pressure (vapor pressure)” value is on record as approximately 4.1 bars. In the case of `CC(C)F` [2-fluoropropane], the “Approximate Pressure (vapor pressure)” value was approximately 5 bars.

As to `FC1(F)C(F)(F)C(F)(F)C1(F)F` [octafluorocyclobutane], the “Approximate Pressure (vapor pressure)” value is approximately 4.3 bars. For the compound `C=CC` [propene], the “Approximate Pressure (vapor pressure)” value is approximately 15.5 bars. Take `FC(F)(F)CC(F)(F)F` [1,1,1,3,3,3 hexafluoropropane]: the “Approximate Pressure (vapor pressure)” value was approximately 4.0 bars. Take `CCOCC` [diethyl ether]: the “Approximate Pressure (vapor pressure)” value is approximately 1.1 bars. For the compound `CCC(C)C` [isopentane], the “Approximate Pressure (vapor pressure)” value is reported as approximately 1.4 bars. For the compound `FCC(F)(F)F` [1,1,1,2-tetrafluoroethane], the “Approximate Pressure (vapor pressure)” value was approximately 9.3 bars. Take `FCCF` [1,2-difluoroethane]: the “Approximate Pressure (vapor pressure)” value was approximately 1.9 bars. Regarding `CCOC` [methyl ethyl ether], the “Approximate Pressure (vapor pressure)” value is given as approximately 3 bars. In the case of `CCC` [propane], the “Approximate Pressure (vapor pressure)” value was approximately 12.8 bars.

`FC(C(F)(F)F)C(F)(F)F` [1,1,1,2,3,3,3-hepta-fluoropropane]: the “Approximate Pressure (vapor pressure)” value is on record as approximately 6.4 bars.

Staying with this data set, now noted: at about 23 ± 3° C.
Regarding `FCC(F)(F)F` [1,1,1,2-tetrafluoroethane], the vapor pressure entry is listed as “about 5 bars”.
